Molecules are shown by their SMILES.

Test [1] concerns the target T1, ULK1 (Homo sapiens, UniProt O75385).
T1 sequence (O75385 1-1050): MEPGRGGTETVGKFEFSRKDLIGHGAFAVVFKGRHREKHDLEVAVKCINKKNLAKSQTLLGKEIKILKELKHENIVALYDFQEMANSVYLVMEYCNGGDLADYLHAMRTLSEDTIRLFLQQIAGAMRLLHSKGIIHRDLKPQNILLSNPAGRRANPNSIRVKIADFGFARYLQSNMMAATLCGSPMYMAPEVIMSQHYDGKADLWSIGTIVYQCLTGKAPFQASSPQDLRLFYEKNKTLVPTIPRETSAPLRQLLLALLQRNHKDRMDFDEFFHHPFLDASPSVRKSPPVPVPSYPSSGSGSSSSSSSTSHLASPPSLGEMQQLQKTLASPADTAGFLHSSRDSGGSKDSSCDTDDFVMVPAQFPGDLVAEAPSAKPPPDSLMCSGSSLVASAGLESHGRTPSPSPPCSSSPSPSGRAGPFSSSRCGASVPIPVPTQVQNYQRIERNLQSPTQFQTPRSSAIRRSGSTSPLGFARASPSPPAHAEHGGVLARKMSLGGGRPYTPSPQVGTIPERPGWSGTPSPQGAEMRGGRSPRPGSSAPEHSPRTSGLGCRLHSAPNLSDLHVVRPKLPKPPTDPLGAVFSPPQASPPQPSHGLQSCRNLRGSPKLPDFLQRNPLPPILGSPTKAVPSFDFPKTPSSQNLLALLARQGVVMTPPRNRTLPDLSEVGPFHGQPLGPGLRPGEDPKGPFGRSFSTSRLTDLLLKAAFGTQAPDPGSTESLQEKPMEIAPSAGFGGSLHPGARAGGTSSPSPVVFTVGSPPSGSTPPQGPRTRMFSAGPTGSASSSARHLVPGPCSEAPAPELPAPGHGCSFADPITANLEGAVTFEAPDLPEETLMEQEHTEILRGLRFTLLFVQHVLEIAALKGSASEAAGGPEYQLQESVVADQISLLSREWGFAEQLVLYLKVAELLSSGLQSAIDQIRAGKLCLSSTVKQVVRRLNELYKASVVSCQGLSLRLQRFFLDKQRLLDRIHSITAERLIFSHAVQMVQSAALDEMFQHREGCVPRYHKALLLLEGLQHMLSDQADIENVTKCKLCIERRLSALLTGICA
Briefly: Western blot of ULK1 signaling (p-ATG14, p-Beclin1, p-ULK1) in MT330 cells. The test is classed as cell-based. The conditions noted are these: Baf 100 nM, 3 h.

Test [2] has as its system MT330 cells. Briefly: Western blot of LC3-II and p62 (autophagy flux) in MT330 cells. It is filed as cell-based. Here is the method:
FIGS. 3A to 3H show STAT3-KO activates autophagy through mTOR-independent but Prom1-dependent signalling pathways in MT330 cells. […] Cell lysates were analysed for LC3-I/II, p62 and CathepsinD.
(§1) FIGS. 3B and 3C show quantification of LC3-II/Actin ratio (FIG. 3B) and p62/Actin ratio (FIG. 3C). […] Cell lysates were immunoblotted with the indicated antibodies and beta actin was used as an internal loading control. […] Cell lysates were analyzed by Western blotting using antibodies specific for STAT3, Prom1 and LC3-I/II.
(§2) Total cell lysates were immunoblotted with indicated antibodies with p-Actin serving as a loading control. FIGS. 6B to 6E show quantification of the ratio of phospho- and total-ATG14 (FIG. 6B); phospho- and total-Beclin1 (FIG. 6C); phospho- and total-ULK1 (FIG. 6D); and LC3-II and Actin (FIG. 6E).
(§3) ULK1 knockdown was verified by Western blotting with ULK1 and phospho-ULK1, and cell lysates were analysed for LC3, cleaved caspase-3 with p-Actin as a loading control. FIGS. 7B to 7D show quantification of the ratio of total-ULK1 and Actin (FIG. 7B); LC3-II and Actin (FIG. 7C); active caspase-3 and Actin (FIG. 7D).
(§4) Cell lysates were prepared using mammalian protein extraction buffer (Cell Signaling Technology) and a protease inhibitor cocktail followed by SDS-PAGE. Proteins were transferred to Immobilon-P membranes (Millipore Bedford) and probed with primary antibodies overnight at 4° C. in TBS buffer containing 0.1% Tween-20 and 5% nonfat dry milk (Bio-Rad). Membranes were subsequently incubated with horseradish peroxidase-conjugated secondary antibodies at room temperature for 1 h, and the immunocomplexes were visualized by the ECL detection system (Perkin Elmer) quantified on the Azure Biosystems C500. Membranes were stripped and re-probed for actin or GAPDH as loading controls. Representative Western blots from three experiments are shown. Densitometric analysis of all Western blots was performed using Image J software.
In general terms: Immunoblotting shows a protein as a band on a membrane.

Test [3] concerns AMPKα. As to the kind of experiment: Western blot of p-AMPKα T172 in MT330 cells. The test is classed as cell-based. The conditions noted are these: Baf 100 nM, 3 h. Here is the method:
FIGS. 1A to 1H show STAT3 deletion activates autophagy through AMPKα-ULK1-TSC2 signaling pathways in MT330 cells. […] Untreated (UT) cells served as controls. Total cell lysates were prepared and immunoblotted with indicated antibodies. […] Blots were stripped and probed for total-AMPKα. […] Blots were stripped and probed for total-ULK1. […] Blots were stripped and probed with total-TSC2 antibody.
as §4

For test [4], the system named is MT330 cells. As to the kind of experiment: Immunolocalization of LC3 and p62 in MT330 cells. The test is classed as cell-based. Here is the method: EV MT330 cells, STAT3-KO, STAT3-KO cells rescued with WT-STAT3, were grown on chamber slides, and treated with or without 1 μM Baf for 48 h. Cells were fixed and immunostained for LC3, p62, and counterstained with DAPI, and analysed by confocal microscopy. Scale bar […].
Cells were cultured in chamber slides (Millipore) to ˜70% confluence and washed with PBS. Cells were fixed in 4% paraformaldehyde and methanol, and permeabilized with 1% Triton X-100. After blocking with 5% goat serum, cells were incubated with anti-rabbit LC3 and anti-mouse p62 antibodies and subsequently stained with Alexa Fluor 488 (goat anti-rabbit) and Alexa Fluor 633 (goat anti-mouse) secondary antibodies, as described previously. 24 DNA was counterstained with Vectashield mounting media with DAPI (Vectra Laboratories). Images were captured on a Zeiss LSM700 laser scanning confocal microscope.

Test [5] has as its system mTORC1. As to the kind of experiment: Western blot of mTOR S2448 and S6 phosphorylation in MT330 cells. The test is classed as cell-based. The procedure:
as §1, §2, §4

Test [6] has as its system AMPK. Conditions: cited from earlier work.
Test [7] has as its system autophagy. Conditions: cited from earlier work.
Test [8] relates to mTORC1 and AMPK. The conditions noted are these: cited from earlier work.
For test [9], the system named is MT330 cells. As to the kind of experiment: Caspase-3 cleavage Western blot (apoptosis) in MT330 cells. It is filed as cell-based. The conditions noted are these: MRT68921 20 μM, 5 h. Here is the method: as §2, §3
as §4, with “Densitometric analysis of all Western blots was performed using Image J software.” left out

In test [10] the test system is MT330 cells. Briefly: Cell death ELISA (DNA fragmentation) in MT330 cells. The test is classed as cell-based. Conditions: STAT3-KO and mutant expressing cells vs control cells, MRT68921 20 μM, 5 h. The procedure:
as §2, §3
The quantitative DNA fragmentation assay was performed using a cell death ELISA kit as described earlier (Bhattacharya S, et al. Apoptosis. 2014 19(3):451-466). […] Cells were lysed, and an aliquot of the nuclei-free supernatant was placed in streptavidin-coated plates and incubated with anti-histone biotin and anti-DNA peroxidase-conjugated antibodies for 2 h at room temperature. After incubation, the samples were aspirated, and the wells were washed 3 times with incubation buffer. […] The absorbance was read at 405 nm using the SpectraMax iD3 microplate reader (Molecular Devices). Results were expressed as absorbance at 405 nm/mg protein/min.
For orientation: ELISA stands for enzyme-linked immunosorbent assay.

In test [11] the test system is hepatocellular carcinoma (HCC) cells. Conditions: cited from earlier work.
[12] abbreviates: EV MT330 cells, Everolimus (RAD001) 10 μM, 3 h.

On to `CO/C1=C\C(C)=C\[C@@H](C)[C@@H](O)[C@@H](C)C/C(C)=C/C=C/[C@H](OC)[C@@H]([C@@H](C)[C@@H](O)[C@H](C)[C@@]2(O)C[C@@H](O)[C@H](C)[C@@H](C(C)C)O2)OC1=O` [Bafilomycin, Bafilomycin A1], for which the ULK1 phosphorylation result in test [1] is listed as “no effect”. In addition, the LC3-II levels entry in test [2] (MT330 cells expressing the S727A mutant, Baf 100 nM, 3 h) was “did not significantly change”; in [2] (STAT3-deleted MT330 cells, Baf 100 nM, 3 h), “further increased”; in [2] (control MT330 EV cells, Baf 100 nM, 3 h), “no effect”. Further, the p62 accumulation entry in test [2] (STAT3-KO MT330 cells, Baf 100 nM, 3 h) was “partially increased”. In addition, the AMPKα phosphorylation result in [3] is “no effect”. The “LC3 and p62 staining” value in test [4] (EV MT330 cells, Baf 1 μM, 48 h) is “no effect”. In test [4] (STAT3-KO MT330 cells, bafilomycin 48 h), the “LC3+ and p62 puncta formation and co-localization” value was “increased”.

Turning to `CO[C@H]1C[C@@H]2CC[C@@H](C)[C@@](O)(O2)C(=O)C(=O)N2CCCC[C@H]2C(=O)O[C@H]([C@H](C)C[C@@H]2CC[C@@H](OCCO)[C@H](OC)C2)CC(=O)[C@H](C)/C=C(\C)[C@@H](O)[C@@H](OC)C(=O)[C@H](C)C[C@H](C)/C=C/C=C/C=C/1C` [Everolimus, everolimus], the “autophagy induction (LC3-II/Actin ratio)” value in [2] (setting [12]) is listed as “no significant effect”. The autophagic flux entry in test [2] (cells lacking STAT3 and STAT3-KO cells expressing STAT3 phosphodeficient mutants, Everolimus 10 μM ± Baf 100 nM, 3 h) was “enhances autophagic flux”. Further, in [5] (setting [12]), the “mTOR S2448 phosphorylation” value was “inhibited” and the “pS6K phosphorylation (downstream target of mTORC1)” value is reported as “inhibited”.

In the case of `CCn1c(-c2nonc2N)nc2c(C#CC(C)(C)O)ncc(OC[C@H]3CCCNC3)c21` [GSK690693], the IC50 in test [6] was 50 nM.

With `O=C1Nc2ccc(C(=O)c3ccco3)cc2/C1=C/c1cc(Cl)c(O)c(Cl)c1` [GW406108X], the “effect on autophagy / autophagic flux” value in [7] is “blocks autophagic flux”. Besides, the “effect on upstream signaling kinases mTORC1 and AMPK” value in test [8] is on record as “without affecting”.

Regarding `Cl.O=C(NCCCNc1nc(Nc2cccc(CN3CCOCC3)c2)ncc1C1CC1)C1CCC1` [MRT67307 hydrochloride], in [7], the “effect on autophagy / autophagic flux” value is “blocks autophagy”.

Take `CN1CCc2cc(Nc3ncc(C4CC4)c(NCCCNC(=O)C4CCC4)n3)ccc2C1` [MRT68921]: the “effect on autophagy / autophagic flux” value in [7] is “blocks autophagy flux”. Besides, the “apoptosis by caspase-3 cleavage” value is on record as “induced apoptosis” in test [9] (STAT3-KO and STAT3-mutant expressing lines); “not” in test [9] (control EV and WT-STAT3 reconstituted cells). Moreover, the LC3-II levels result in [2] (STAT3-KO cells and Y705F or S727A mutant cells, MRT68921 20 μM, 5 h) is listed as “significantly increased”. In addition, the autophagy flux result in [2] (cells lacking functional STAT3, MRT68921 20 μM ± Baf 100 nM, 5 h) is reported as “blocks autophagy flux”. Further, the “apoptotic cell death (DNA fragmentation) by ELISA” value in [10] was “significantly increased apoptosis”. In addition, the “mTOR S2448 phosphorylation” value in [5] (MT330 cells, MRT68921 20 μM, 5 h) is reported as “did not significantly block”.

With `COC(=O)c1cc2c(OC(C)C)cc(OC(C)C)cc2[nH]1` [XST-14], the “effect on autophagy / autophagic flux” value in test [7] is recorded as “induces autophagy inhibition”. Moreover, the “apoptosis in hepatocellular carcinoma (HCC) cells” value in test [11] is recorded as “induces apoptosis”.

Usually IC50 stands for the midpoint of a concentration-inhibition curve.

These data come from patent US20250011790A1, “COMBINED TARGETING OF STAT3 AND ULKI TO TREAT GLIOBLASTOMA” (Vanderbilt University, priority 2021, published 2025).
